Here are results for one compound from article PMC8533176, “1,5-Benzodiazepin-2(3H)-ones: In Vitro Evaluation as Antiparkinsonian Agents” (Antioxidants, 2021).

Bounds are passed on as bounds.

Data set [1] concerns SH-SY5Y cells. Nature of the data set: Cytotoxicity, MTT assay, SH-SY5Y. Particulars: Homo sapiens, MTT, cytotoxicity, read-out: SH-SY5Y IC50. It counts as cell-based. The gist of the method:
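Cells treated with 5–200 µM compound (DMSO vehicle, four replicates) after overnight attachment. Viability read by MTT reduction (2 h, 37 °C, dark; formazan in DMSO, A570) relative to vehicle controls; IC50 from dose–response regression.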
(Formazan colour is commonly taken as a measure of viable cells.)

Data set [2] has as its system SH-SY5Y cells. Nature of the data set: LDH release under H2O2. It counts as cell-based, human. Conditions: H2O2 250 µM 24 h; compounds 24 h before; Figure 9. (In general: Release of lactate dehydrogenase indicates damage to the cell membrane.)
For data set [3], the system named is SH-SY5Y cells. Nature of the data set: Calcein-AM cell viability assay under H2O2. It counts as cell-based, human. Conditions: H2O2 250 µM 24 h; 5, 10, 20, and 40 µM; Figure 12. As to the method: Calcein-AM is a fluorescence-based cell viability assay. Calcein-acetoxymethyl (AM) is a non-fluorescent compound that enters the cells where intracellular esterases hydrolyze the acetoxymethyl group. The fluorescent calcein is retained in the living cells, and it can be detected at λex = 495 and λem = 550 nm. After treatment, all the samples were washed with PBS and incubated with 2 μM calcein-AM for 30 min at 37 °C, 5% CO2, and protected from light. The fluorescence was measured in a Varioskan microplate reader (Thermo Fisher Scientific, Vantaa, Finland) with λex = 490 and λem = 520 nm filters. Cell viability was calculated from samples treated with 1% Triton X-100 for 30 min at 37 °C, 5% CO2.
Calcein-AM is a membrane permeant, not a fluorescent compound. Only live cells with intact plasma membrane have esterases that hydrolyze the compound into the green fluorescent dye calcein, which is retained in the cytoplasm. The fluorescent signal obtained is proportional to the number of living cells in the sample. […] Microscopy images in Figure S3 show the neuroprotection activity observed with Calcein-AM for derivative 18.

The subject of data set [4] is SH-SY5Y cells. Nature of the data set: Neuroprotection in the 6-OHD neurotoxicity-induced model, MTT. The data set is classed as cell-based, human. Conditions: 6-OHD 250 µM 48 h; compounds 24 h before.
The test system of data set [5] is SH-SY5Y cells. Nature of the data set: Mitochondrial superoxide levels (MitoSOX). It counts as cell-based, human. Conditions: H2O2 250 µM; compounds 24 h before. On the procedure:
Mitochondrial superoxide levels were measured with MitoSOX red (3,8-phenanthridinediamine, 5-(60-triphenylphosphoniumhexyl)-5,6-dihydro-6-phenyl) from Molecular Probes (Thermo Fisher Scientific, 29851Willow Creek Road, Eugene, OR, USA). After SH-SY5Y cell treatment in 96-well culture black clear bottom plates, the medium was removed and cells were washed with PBS and afterward, MitoSOX red (final concentration of 5 µM) in 200 µL of PBS was added and incubated for 20 min at 37 °C. After incubation, the cells were washed with warm PBS buffer, and fluorescence was measured at 510 nm excitation/640 nm emission wavelengths in a Varioskan microplate reader (Thermo Fisher Scientific, Vantaa, Finland).

Data set [6] relates to SH-SY5Y cells. Nature of the data set: GSH/GSSG ratio. It counts as cell-based, human. Conditions: H2O2 500 µM 6 h; 10 and 20 µM 24 h before. On the procedure: GSH and GSSG levels were determined by the method of Vikas et al. with slight modifications. In summary, 2 × 10^5 SH-SY5Ycells were seeded in 6-well culture plates. After 24 h, cells were treated with the test compound and incubated for another 24 h. […] Then, cells were washed twice with cold 50 mM PBS buffer, detached, lysed with lysis buffer, and split into two samples: one for GSH analysis and the other for GSSG determination. For GSH analysis, 20 µL of ortho-phthaldehyde (OPT) 20 mg/mL and 280 µL of monobasic potassium phosphate buffer were added per 100 µL of sample replicate. Samples were vortexed and centrifuged at 4 °C at 13,000× g for 10 min. Afterward, 100 µL of supernatant per well was transferred to a black 96-well culture plate with a clear bottom. Fluorescence was measured in a Varioskan plate reader (λex = 360 nm; λem = 420 nm). Sample GSH concentrations were calculated from a standard calibration curve made by serial dilutions of GSH from 0 to 50 µM. […] Fluorescence was measured in a Varioskan plate reader (λex = 360 nm; λem = 420 nm). Sample GSSG concentrations were calculated from a standard calibration curve made by serial dilutions of GSSG from 0 to 200 µM.

Data set [7] has as its system diffSH-SY5Y cells. Nature of the data set: Neuroprotection in differentiated SH-SY5Y cells, MTT. The data set is classed as cell-based, human. Conditions: H2O2 500 µM 24 h; 0, 2, 5, 10, 20, and 40 µM 24 h before.
Data set [8] can be described thus: Chemical reactivity with H2O2. Conditions: H2O2 500 µM, 37 °C, 4 h, DMEM:F12 without cells. The data set is classed as physicochemical. As to the method:
In our case, before running the protection experiments under oxidative stress conditions, we carried out experiments to assess the potential reactivity of compounds 9, 11, 13, and 18 at four different concentrations (5, 10, 20, and 40 µM) with H2O2 500 µM at 37 °C for 4 h in DMEM:F12 (without phenol red, FBS, and cells). Curcumin was used as a control compound.

For data set [9], the system named is SH-SY5Y cells. Nature of the data set: Neuroprotection against H2O2-induced oxidative stress, MTT. Conditions: H2O2 250 µM 24 h; compounds 5-50 µM 24 h before; Figure 8.

As a reminder, the IC50 is the concentration that inhibits the measured activity by half. As to `O=C1CC(c2ccccc2)=Nc2ccccc2N1` [Compound 18, 4-Phenyl-1H-1,5-benzodiazepin-2(3H)-one], the IC50 in [1] is > 250 µM. For the same compound, the LDH leakage entry in [2] is “significant reduction at all the concentrations tested”. For the same compound, the “Neuroprotection, Calcein-AM cell counting” value in [3] was “statistically significant neuroprotectant activity”. For the same compound, the “Neuroprotection, cell viability (MTT), 6-OHD model” value in [4] is “significant neuroprotection”. The “Reduction in mitochondrial superoxide levels” value in [5] is “reduce mitochondrial superoxide levels in a dose-dependent manner”. The GSH/GSSG ratio result in data set [6] is on record as “improved the GSH/GSSG ratios of cells under oxidative stress, although without statistical significance”. In addition, in data set [7], the “Neuroprotection, diffSH-SY5Y cell viability (MTT)” value is “dose-dependent neuroprotectant activity”. Also, the “Reaction with H2O2” value in [8] was “did not show any significant reaction”. Also, the “Neuroprotection effect, cell viability (MTT)” value in data set [9] was “significantly improved”.
